{
  "source": "patent US20250230193A1",
  "about": "“CYCLIC COMPOUND HAVING SELECTIVE KRAS INHIBITORY EFFECT ON HRAS AND NRAS” (CHUGAI SEIYAKU KABUSHIKI KAISHA, priority 2022, published 2025)",
  "key": {"[1]": {"biological_target": "GDP-bound NRAS wild-type protein (Homo sapiens, UniProt P01111)", "sequence (P01111 whole entry)": "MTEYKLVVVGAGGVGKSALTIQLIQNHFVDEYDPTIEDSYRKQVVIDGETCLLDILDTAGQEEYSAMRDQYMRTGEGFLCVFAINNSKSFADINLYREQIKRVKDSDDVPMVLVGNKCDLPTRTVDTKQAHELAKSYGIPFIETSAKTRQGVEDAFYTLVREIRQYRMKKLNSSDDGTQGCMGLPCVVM", "experiment": "Binding to NRAS by surface plasmon resonance (SPR), Single Cycle Kinetics"}, "[2]": {"biological_target": "GDP-bound HRAS wild-type protein (Homo sapiens, UniProt P01112)", "sequence (P01112 whole entry)": "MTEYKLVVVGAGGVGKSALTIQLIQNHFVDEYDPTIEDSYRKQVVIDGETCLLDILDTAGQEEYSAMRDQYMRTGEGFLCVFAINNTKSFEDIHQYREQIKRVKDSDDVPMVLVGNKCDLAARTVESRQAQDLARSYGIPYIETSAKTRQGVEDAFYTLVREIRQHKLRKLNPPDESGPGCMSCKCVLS", "experiment": "Binding to HRAS by surface plasmon resonance (SPR), Single Cycle Kinetics"}, "[3]": {"conditions": "KD ratio NRAS/KRAS, class symbols"}, "[4]": {"conditions": "KD ratio HRAS/KRAS, class symbols"}, "[5]": {"conditions": "KD ratio, GDP-bound NRAS wild-type vs GDP-bound KRAS wild-type, SPR"}, "[6]": {"conditions": "KD ratio, GDP-bound HRAS wild-type vs GDP-bound KRAS wild-type, SPR"}},
  "note": "Where a SMILES comes first, the peptide text is derived from it. Bridges are numbered along the chain shown (N, C = ends). [ ]: non-standard residue; d: D form. hPhe(3-Cl-4-CF3) = N[C@@H](CCc1ccc(C(F)(F)F)c(Cl)c1)C(=O)O; NPrPhe(4-CF3) = CCCN[C@@H](Cc1ccc(C(F)(F)F)cc1)C(=O)O; NMeGly(cPent) = CN[C@H](C(=O)O)C1CCCC1; NMeL = CN[C@@H](CC(C)C)C(=O)O; Aze = O=C(O)[C@@H]1CCN1; Ac4c = NC1(C(=O)O)CCC1; Sar = CNCC(=O)O",
  "data": [
    {"smiles": "CCO[C@@H]1C[C@H]2C(=O)NC3(CCC3)C(=O)N(C)[C@@H](C3CCCC3)C(=O)N(C)[C@H](C(=O)N(C)C)CC(=O)N(C)[C@@H](CC3CCCC3)C(=O)N[C@@H]([C@@H](C)CC)C(=O)N(C)CC(=O)N(C)[C@H]3C/C=C\\CCN(C3=O)[C@@H](Cc3ccc(C)cc3)C(=O)N(C)CC(=O)N[C@@H](CCc3ccc(C(F)(F)F)c(C4CC4)c3)C(=O)N2C1", "note": "[PP2681]", "values": [
      {"measurement": "NRAS/KRAS (ratio of KD value with respect to GDP-bound NRAS wild-type protein to KD value with respect to KRAS)", "setting": "[1]; [3]", "result": "A (a compound having 10 or more and less than 20 is denoted as A)"},
      {"measurement": "HRAS/KRAS (ratio of KD value with respect to GDP-bound HRAS wild-type protein to KD value with respect to KRAS)", "setting": "[2]; [4]", "result": "A (a compound having 10 or more and less than 20 is denoted as A)"}
    ]},
    {"smiles": "CCCCN1CC(=O)NC2(CCC2)C(=O)N(C)[C@@H](C2CCCC2)C(=O)N(C)[C@H](C(=O)N(C)C)CC(=O)N(C)[C@@H](CC)C(=O)N[C@@H]([C@@H](C)CC)C(=O)N(C)CC(=O)N(C)[C@H]2C/C=C\\CCN(C2=O)[C@@H](Cc2ccc(C(F)(F)F)cc2)C(=O)N(C)CC(=O)N[C@@H](CCc2cc(F)c(C(F)(F)F)c(F)c2)C1=O", "note": "[PP1142]", "values": [
      {"measurement": "NRAS/KRAS (ratio of KD value with respect to NRAS to KD value with respect to KRAS)", "setting": "[1]; [5]", "result": "A (a compound having 10 or more and less than 20 is denoted as A)"},
      {"measurement": "HRAS/KRAS (ratio of KD value with respect to HRAS to KD value with respect to KRAS)", "setting": "[2]; [6]", "result": "A (a compound having 10 or more and less than 20 is denoted as A)"}
    ]},
    {"smiles": "CCCN1C(=O)[C@@H]2CCN2C(=O)CN(C)C(=O)[C@H]([C@@H](C)CC)NC(=O)[C@H](CC(C)C)N(C)C(=O)C[C@@H](C(=O)N(C)C)NC(=O)[C@H](C2CCCC2)N(C)C(=O)C2(CCC2)NC(=O)[C@@H]2CCCN2C(=O)[C@H](CCc2ccc(C(F)(F)F)c(Cl)c2)NC(=O)CN(C)C(=O)[C@@H]1Cc1ccc(C(F)(F)F)cc1", "note": "[PP0386] ([NMeL]I[Sar][Aze][NPrPhe(4-CF3)][Sar][hPhe(3-Cl-4-CF3)]P[Ac4c][NMeGly(cPent)]D-NMe2; lactam N-11)", "values": [
      {"measurement": "NRAS/KRAS (ratio of KD for GDP-bound NRAS wild-type to KD for KRAS)", "setting": "[1]; KD ratio NRAS/KRAS, SPR", "result": "C (A compound having a KD ratio of 0.1 or more and less than 3 is denoted as C)"},
      {"measurement": "HRAS/KRAS (ratio of KD for GDP-bound HRAS wild-type to KD for KRAS)", "setting": "[2]; KD ratio HRAS/KRAS, SPR", "result": "B (a compound having 3 or more and less than 10 is denoted as B)"}
    ]},
    {"smiles": "CC[C@H](C)[C@@H]1NC(=O)[C@H](CC(C)C)N(C)C(=O)C[C@@H](C(=O)N2CCOCC2)N(C)C(=O)[C@H](C2CCCC2)N(C)C(=O)C2(CCCC2)NC(=O)[C@@H]2CCCN2C(=O)[C@H](CCc2cc(F)c(C(F)(F)F)c(F)c2)NC(=O)CN(C)C(=O)[C@H](Cc2ccc(C(F)(F)F)cc2)N2CCCC[C@@H](C2=O)N(C)C(=O)[C@@H]2CCCCN2C1=O", "note": "[PP0548]", "values": [
      {"measurement": "NRAS/KRAS (ratio of KD value with respect to GDP-bound NRAS wild-type protein to KD value with respect to KRAS)", "setting": "[1]; KD ratio NRAS/KRAS, SPR", "result": "C (A compound having a KD ratio of 0.1 or more and less than 3 is denoted as C)"},
      {"measurement": "HRAS/KRAS (ratio of KD value with respect to GDP-bound HRAS wild-type protein to KD value with respect to KRAS)", "setting": "[2]; KD ratio HRAS/KRAS, SPR", "result": "B (a compound having 3 or more and less than 10 is denoted as B)"}
    ]},
    {"smiles": "CCO[C@@H]1C[C@H]2C(=O)N(C)C3(CCC3)C(=O)N(C)[C@@H](C3CCCC3)C(=O)N(C)[C@H](C(=O)N(C)C)CC(=O)N(C)[C@@H](CC)C(=O)N[C@@H]([C@@H](C)CC)C(=O)N3CCC[C@H]3C(=O)N(C)[C@H]3C/C=C\\CCN(C3=O)[C@@H](Cc3ccc(C)cc3)C(=O)N(C)CC(=O)N[C@@H](CCc3cc(F)c(C(F)(F)F)c(F)c3)C(=O)N2C1", "note": "[PP1785]", "values": [
      {"measurement": "NRAS/KRAS (ratio of KD value for NRAS to KD value for KRAS)", "setting": "[1]; [5]", "result": "A (a compound having 10 or more and less than 20 is denoted as A)"},
      {"measurement": "HRAS/KRAS (ratio of KD value for HRAS to KD value for KRAS)", "setting": "[2]; [6]", "result": "A (a compound having 10 or more and less than 20 is denoted as A)"}
    ]},
    {"smiles": "CCC[C@H]1C(=O)N[C@@H]([C@@H](C)CC)C(=O)N(C)CC(=O)N(C)[C@H]2C/C=C\\CCN(C2=O)[C@@H](Cc2ccc(C(F)(F)F)cc2)C(=O)N(C)CC(=O)N[C@@H](CCc2ccc(C(F)(F)F)c(OC)c2)C(=O)N2CCCCC[C@H]2C(=O)NC2(CC(C)(C)C2)C(=O)N(C)[C@@H](C(CC)CC)C(=O)N(C)[C@H](C(=O)N(C)C)CC(=O)N1C", "note": "[PP2968]", "values": [
      {"measurement": "NRAS/KRAS (ratio of KD value with respect to GDP-bound NRAS wild-type protein to KD value with respect to KRAS)", "setting": "[1]; [3]", "result": "AA (a compound having 20 or more is denoted as AA)"},
      {"measurement": "HRAS/KRAS (ratio of KD value with respect to GDP-bound HRAS wild-type protein to KD value with respect to KRAS)", "setting": "[2]; [4]", "result": "A (a compound having 10 or more and less than 20 is denoted as A)"}
    ]},
    {"smiles": "CCC[C@H]1C(=O)N[C@@H]([C@@H](C)CC)C(=O)N(C)CC(=O)N(C)[C@H]2C/C=C\\CCN(C2=O)[C@@H](Cc2ccc(C)cc2)C(=O)N(C)CC(=O)N[C@@H](CCc2cc(F)c(C(F)(F)F)c(F)c2)C(=O)N2C[C@H](OCC)C[C@H]2C(=O)NC2(CC(C)(C)C2)C(=O)N(C)[C@@H](CC2CCC2)C(=O)N(C)[C@H](C(=O)N(C)C)CC(=O)N1C", "note": "[PP2751]", "values": [
      {"measurement": "NRAS/KRAS (ratio of KD value with respect to GDP-bound NRAS wild-type protein to KD value with respect to KRAS)", "setting": "[1]; [3]", "result": "A (a compound having 10 or more and less than 20 is denoted as A)"},
      {"measurement": "HRAS/KRAS (ratio of KD value with respect to GDP-bound HRAS wild-type protein to KD value with respect to KRAS)", "setting": "[2]; [4]", "result": "A (a compound having 10 or more and less than 20 is denoted as A)"}
    ]},
    {"smiles": "CCO[C@@H]1C[C@H]2C(=O)NC3(CC(C)(C)C3)C(=O)N(C)[C@@H](C3CCCC3)C(=O)N(C)[C@H](C(=O)N(CC)CC)CC(=O)N(C)[C@@H](COC)C(=O)N[C@@H]([C@@H](C)CC)C(=O)N(C)CC(=O)N(C)[C@H]3C/C=C\\CCN(C3=O)[C@@H](Cc3ccc(C)cc3)C(=O)N(C)CC(=O)N[C@@H](CCc3ccc(C(F)(F)F)c(OC)c3)C(=O)N2C1", "note": "[PP2398]", "values": [
      {"measurement": "NRAS/KRAS (ratio of KD value with respect to NRAS to KD value with respect to KRAS)", "setting": "[1]; SPR, GDP-bound NRAS wild-type vs GDP-bound KRAS wild-type", "result": "A (a compound having 10 or more and less than 20 is denoted as A)"},
      {"measurement": "HRAS/KRAS (ratio of KD value with respect to HRAS to KD value with respect to KRAS)", "setting": "[2]; SPR, GDP-bound HRAS wild-type vs GDP-bound KRAS wild-type", "result": "A (a compound having 10 or more and less than 20 is denoted as A)"}
    ]}
  ]
}
